According to the supplement of paper PMC10307832:

How the values were obtained:
Test in all cases: relative viability (nuclei count vs DMSO), 5 days (fraction); higher = more cells survive
Palbociclib + Pemetrexed = compound: CC(=O)c1c(C)c2cnc(Nc3ccc(N4CCNCC4)cn3)nc2n(C2CCCC2)c1=O [Palbociclib] + Nc1nc2[nH]cc(CCc3ccc(C(=O)N[C@@H](CCC(=O)O)C(=O)O)cc3)c2c(=O)[nH]1 [Pemetrexed] (partner 0.2 µM)
Procedure, shortened: (§1)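 A single step with final 0.05% Triton X-100, 1% formaldehyde and 1 ug/ml Hoechst fixed the cells and stained nuclei 5 days after treatment. Lung cancer cell lines in 1536-well plates had been treated by pin tool the day after seeding with one drug alone or a fixed anchor-drug dose plus five library-drug doses (not always all listed) in √10 steps, and nuclei were counted on 4× images. Relative viability is the ratio of nuclei in treated wells to nuclei in vehicle wells, taken as the median of duplicate plates.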

Palbociclib + Bortezomib = compound: CC(=O)c1c(C)c2cnc(Nc3ccc(N4CCNCC4)cn3)nc2n(C2CCCC2)c1=O [Palbociclib] + CC(C)C[C@H](NC(=O)[C@H](Cc1ccccc1)NC(=O)c1cnccn1)B(O)O [Bortezomib] (partner 0.002 µM)
Procedure, shortened: as §1

Palbociclib + Lapatinib = compound: CC(=O)c1c(C)c2cnc(Nc3ccc(N4CCNCC4)cn3)nc2n(C2CCCC2)c1=O [Palbociclib] + CS(=O)(=O)CCNCc1ccc(-c2ccc3ncnc(Nc4ccc(OCc5cccc(F)c5)c(Cl)c4)c3c2)o1 [Lapatinib] (partner 2 µM)
Procedure, shortened: as §1

Palbociclib + Pictilisib = compound: CC(=O)c1c(C)c2cnc(Nc3ccc(N4CCNCC4)cn3)nc2n(C2CCCC2)c1=O [Palbociclib] + CS(=O)(=O)N1CCN(Cc2cc3nc(-c4cccc5[nH]ncc45)nc(N4CCOCC4)c3s2)CC1 [Pictilisib] (partner 1 µM)
Procedure, shortened: as §1

| Cell Line | relative viability (Palbociclib + Pemetrexed; first compound 0.01 µM) | relative viability (Palbociclib + Pemetrexed; first compound 0.03162 µM) | relative viability (Palbociclib + Pemetrexed; first compound 0.1 µM) | relative viability (Palbociclib + Pemetrexed; first compound 0.3162 µM) | relative viability (Palbociclib + Pemetrexed; first compound 1 µM) | relative viability (Palbociclib + Bortezomib; first compound 0.01 µM) | relative viability (Palbociclib + Bortezomib; first compound 0.03162 µM) | relative viability (Palbociclib + Bortezomib; first compound 0.1 µM) | relative viability (Palbociclib + Bortezomib; first compound 0.3162 µM) | relative viability (Palbociclib + Bortezomib; first compound 1 µM) | relative viability (Palbociclib + Lapatinib; first compound 0.01 µM) | relative viability (Palbociclib + Lapatinib; first compound 0.03162 µM) | relative viability (Palbociclib + Lapatinib; first compound 0.1 µM) | relative viability (Palbociclib + Lapatinib; first compound 0.3162 µM) | relative viability (Palbociclib + Lapatinib; first compound 1 µM) | relative viability (Palbociclib + Pictilisib; first compound 0.01 µM) | relative viability (Palbociclib + Pictilisib; first compound 0.03162 µM) | relative viability (Palbociclib + Pictilisib; first compound 0.1 µM) | relative viability (Palbociclib + Pictilisib; first compound 0.3162 µM) | relative viability (Palbociclib + Pictilisib; first compound 1 µM) |
| --- | --- | --- | --- | --- | --- | --- | --- | --- | --- | --- | --- | --- | --- | --- | --- | --- | --- | --- | --- | --- |
| EMC-BAC-2 | 0.449 | 0.476 | 0.427 | 0.417 | 0.428 | 1.09 | 0.812 | 0.905 | 0.785 | 0.665 | 0.908 | 0.515 | 0.793 | 0.689 | 0.597 | 0.553 | 0.445 | 0.442 | 0.414 | 0.345 |
| COR-L 105 | 1.21 | 0.802 | 0.778 | 0.697 | 0.47 | 0.759 | 0.435 | 0.486 | 0.504 | 0.363 | 0.352 | 0.281 | 0.312 | 0.339 | 0.354 | 0.384 | 0.337 | 0.261 | 0.319 | 0.367 |
| UMC-11 | 0.795 | 0.726 | 0.594 | 0.473 | 0.308 | 0.934 | 0.625 | 0.466 | 0.292 | 0.238 | 1.03 | 0.75 | 0.593 | 0.432 | 0.34 | 0.873 | 0.671 | 0.429 | 0.36 | 0.219 |
| NCI-H1792 | 0.984 | 0.557 | 0.438 | 0.427 | 0.264 | 0.934 | 0.875 | 0.917 | 0.852 | 0.711 | 0.872 | 0.728 | 0.882 | 0.752 | 0.543 | 0.298 | 0.255 | 0.222 | 0.229 | 0.15 |
| RERF-LC-KJ | 0.437 | 0.45 | 0.432 | 0.486 | 0.469 | 1.17 | 1.12 | 1.11 | 1.04 | 1.15 | 0.846 | 0.81 | 0.817 | 0.869 | 0.837 | 0.53 | 0.459 | 0.464 | 0.484 | 0.629 |
| EKVX | 0.392 | – | 0.353 | 0.317 | 0.243 | 1.12 | 0.916 | 1.04 | 0.989 | 0.461 | 0.184 | 0.193 | 0.193 | 0.178 | 0.12 | 0.478 | 0.363 | 0.223 | 0.281 | 0.249 |
| NCI-H358 | 0.167 | 0.163 | 0.166 | 0.186 | 0.135 | – | – | – | – | – | 0.341 | 0.337 | 0.214 | 0.244 | 0.217 | 0.277 | 0.189 | 0.185 | 0.213 | 0.155 |
| LK-2 | 0.283 | 0.175 | 0.205 | 0.205 | 0.238 | – | – | – | – | – | 1.09 | – | 0.642 | 1.23 | 0.842 | 0.574 | – | 0.365 | 0.529 | 0.501 |
| NCI-H1703 | – | – | – | – | – | 0.266 | 0.23 | 0.197 | 0.226 | 0.188 | 0.99 | – | 0.833 | 0.602 | 0.451 | 0.225 | 0.211 | 0.242 | 0.252 | 0.21 |
| NCI-H1944 | 0.598 | 0.57 | 0.589 | 0.477 | 0.367 | – | – | – | – | – | 0.798 | 0.487 | 0.772 | 0.758 | 0.402 | 0.317 | 0.332 | 0.334 | 0.265 | 0.228 |
| ChaGo-K-1 | 0.259 | – | 0.261 | 0.257 | 0.26 | 1.11 | 0.828 | 1.02 | 1.14 | 1.11 | – | – | – | – | – | 0.836 | 0.51 | 0.753 | 0.955 | 1.12 |
| NCI-H522 | 1.2 | 0.504 | 0.99 | 1.02 | 0.932 | – | – | – | – | – | – | – | – | – | – | – | – | – | – | – |
| NCI-H1793 | 0.975 | 0.653 | 0.676 | 0.617 | 0.339 | – | – | – | – | – | 0.68 | 0.619 | 0.462 | 0.602 | 0.355 | 0.241 | 0.351 | 0.285 | 0.224 | 0.219 |
| A549 | – | – | – | – | – | – | – | – | – | – | 0.868 | 0.784 | 0.615 | 0.474 | 0.364 | 0.472 | 0.318 | 0.293 | 0.283 | 0.203 |
| LCLC-103H | 0.432 | 0.495 | 0.484 | 0.443 | 0.412 | 1.2 | 0.957 | 0.967 | 0.87 | 0.649 | – | – | – | – | – | 0.564 | 0.536 | 0.543 | 0.591 | 0.436 |
| NCI-H441 | 0.276 | 0.266 | 0.258 | 0.236 | 0.257 | – | 0.365 | 0.446 | 0.558 | 0.367 | – | – | – | – | – | 0.559 | 0.317 | 0.406 | 0.304 | 0.191 |
| SK-MES-1 | 0.857 | 0.802 | 0.665 | 0.596 | 0.363 | – | – | – | – | – | 0.439 | 0.449 | 0.391 | 0.406 | 0.344 | 0.359 | 0.305 | 0.238 | 0.266 | 0.196 |
| NCI-H2170 | 0.269 | 0.277 | 0.224 | 0.242 | 0.222 | – | – | – | – | – | 0.29 | 0.23 | 0.245 | 0.233 | 0.25 | 0.346 | 0.252 | 0.253 | 0.239 | 0.206 |
| NCI-H1395 | 0.797 | 0.812 | 0.786 | 0.838 | 0.65 | – | – | – | – | – | 0.867 | 0.987 | 0.943 | 0.928 | 0.688 | 0.616 | 0.542 | 0.507 | 0.494 | 0.425 |
| IA-LM | – | – | – | – | – | 0.606 | 0.49 | 0.469 | 0.348 | 0.134 | 0.701 | 0.41 | 0.392 | 0.264 | 0.143 | 0.299 | 0.215 | 0.167 | 0.113 | 0.0912 |
| NCI-H727 | – | – | – | – | – | 0.963 | 0.649 | 0.491 | 0.465 | 0.469 | 0.777 | 0.555 | 0.417 | 0.386 | 0.436 | 0.401 | 0.287 | 0.258 | 0.318 | 0.239 |
